In US4719235A, “Methods and compositions for treating viral infection” (Kern; Gerald N., priority 1985, dated 1988):

Tests used:
[1] = test system: HSV-2; assay: Titration of HSV-2 after contact with serum-free docusate sodium solutions (plaque assay on MA-104 cells); type: cell-based, Herpes Simplex Type 2
[2] = test system: HSV-2; assay: Titration of HSV-2 after contact with docusate sodium solutions containing 10% fetal calf serum; type: cell-based, Herpes Simplex Type 2
[3] = test system: Respiratory syncytial virus (RSV); assay: Inactivation of Respiratory Syncytial Virus (CPE on HeLa cells); type: cell-based
[4] = test system: Influenza A virus; assay: Inactivation of Influenza A virus (CPE on MDCK cells); type: cell-based
[5] = Cytotoxicity in solutions free of serum, MA-104; type: cell-based, monkey; parameters: key to MA-104 (toxicity): 0: Cells had normal morphology; 4+: >90% of cells showed CTE; details: monkey, ma-104 cells, 0.2 mg/ml, 37° C., read-out: MA-104 (toxicity)
Protocol: (§1) The cell lines used to evaluate cytotoxicity of docusate sodium were MA-104 derived from monkey kidneys, HeLa derived from human uterine carcinoma and primary fibroblasts from human foreskin. The cells were grown to confluency in 60×15 mm dishes. The cell monolayers were washed free of growth medium and 5 ml of serum-less growth medium containing docusate sodium at various concentrations was added. The curtures were incubated 24 hours at 37° C. and the cells then examined microscopically for cytotoxic effects (CTE). Controls were done in the same manner except that they were not exposed to docusate sodium.

[6] = test system: MA-104; assay: Cytotoxicity in solutions free of serum, MA-104; type: cell-based, monkey; parameters: key to MA-104 (toxicity): 0: Cells had normal morphology; 4+: >90% of cells showed CTE; details: 24 hours, 37° C.
Protocol: as §1

[7] = test system: MA-104; assay: Cytotoxicity in solutions containing serum, MA-104; type: cell-based, monkey; parameters: key: 0: Cells have normal morphology; 4+: >90% of cells showed CTE.; ±c: less than 10% of cells showed CTE; details: 2% fetal calf serum, 24 hours, 37° C.
[8] = test system: HSV-2; assay: Pretreatment of MA-104 cells prior to exposure to HSV-2; type: cell-based, Herpes Simplex Type 2; details: 0.02 mg/ml
Protocol: In this Example the effect that initially contacting (pretreating) MA-104 cells with docusate sodium has on subsequent exposure of such pretreated cells to HSV-2 virus was studied.
MA-104 cells were washed free of growth medium and the cells were exposed to 0.02 mg/ml docusate sodium in serum-less growth medium for one hour. The docusate sodium solution was poured off, the cells washed twice, and then exposed to appropriately diluted HSV-2. A control solution prepared as above except for exposure to docusate sodium was also provided. After one hour at 37° C., the cells were overlayed with agar and incubated for 3 days at 37° C. to allow plaques to develop.

[9] = test system: Coxsackievirus B-5; assay: Pretreatment of MA-104 cells prior to exposure to Coxsackievirus B-5; type: cell-based
[10] = test system: herpes virus; assay: Recovery of herpes virus from a contaminated surface (glass slides; plaques on MA-104 cells); type: cell-based
[11] = test system: Influenza A virus; assay: Pretreatment of MDCK cells prior to exposure to Influenza A virus; details: 0.1 mg/ml
Protocol: Virus infectivity was determined by cytopathic effects (CPE).
The same procedure was used for this example as was used for Example 24 except that MDCK cells were substituted for HeLa cells and Influenza A virus was substituted for Respiratory Syncytial Virus. Two experiments were run.

Q: For `CCCCC(CC)COC(=O)CC(C(=O)OCC(CC)CCCC)S(=O)(=O)O` (centres unmarked) [docusate sodium, 1,4-bis(2-ethylhexyl)sodium sulfosuccinate], which killing at 10 µg/mL ([1]; Human alphaherpesvirus 2, MA104, 0.25 h, 0.01 mg/ml, 15 min, 37° C., read-out: % Inactivation of HSV-2) is on record?
A: 19%

Q: What about the killing at 20 µg/mL ([1]; Human alphaherpesvirus 2, MA104, 0.25 h, 0.02 mg/ml, 15 min, 37° C., read-out: % Inactivation of HSV-2) of the same compound?
A: 70%

Q: What about the killing at 30 µg/mL ([1]; Human alphaherpesvirus 2, MA104, 0.25 h, 0.03 mg/ml, 15 min, 37° C., read-out: % Inactivation of HSV-2) of the same compound?
A: 97%

Q: And the killing at 40 µg/mL ([1]; Human alphaherpesvirus 2, MA104, 0.25 h, 0.04 mg/ml, 15 min, 37° C., read-out: % Inactivation of HSV-2)?
A: 100%

Q: And the killing at 50 µg/mL ([1]; Human alphaherpesvirus 2, MA104, 0.25 h, 0.05 mg/ml, 15 min, 37° C., read-out: % Inactivation of HSV-2)?
A: 100%

Q: And the killing at 100 µg/mL ([1]; Human alphaherpesvirus 2, MA104, 0.25 h, 0.1 mg/ml, 15 min, 37° C., read-out: % Inactivation of HSV-2)?
A: 100%

Q: And the killing at 200 µg/mL ([1]; Human alphaherpesvirus 2, MA104, 0.25 h, 0.2 mg/ml, 15 min, 37° C., read-out: % Inactivation of HSV-2)?
A: 100%

Q: What about the “inactivation of HSV-2 (conclusion)” value ([1]; concentrations as low as 0.02 mg/ml) of the same compound?
A: effectively inactivates HSV-2

Q: And the “concentration required for a given percentage of HSV-2 inactivation (conclusion)” value ([2]; 10% fetal calf serum vs serum absent)?
A: higher concentrations of docusate sodium were required

Q: What about the killing at 10 µg/mL ([2]; Human alphaherpesvirus 2, 0.25 h, 0.01 mg/ml, 10% fetal calf serum, 15 min, 37° C., read-out: % Inactivation of HSV-2) of the same compound?
A: 10%

Q: And the killing at 100 µg/mL ([2]; Human alphaherpesvirus 2, 0.25 h, 0.1 mg/ml, 10% fetal calf serum, 15 min, 37° C., read-out: % Inactivation of HSV-2)?
A: 10%

Q: And the killing at 200 µg/mL ([2]; Human alphaherpesvirus 2, 0.25 h, 0.2 mg/ml, 10% fetal calf serum, 15 min, 37° C., read-out: % Inactivation of HSV-2)?
A: 95%

Q: What about the “Presence of CPE” value [3] of the same compound?
A: -

Q: What about the “inactivation of RSV (conclusion)” value [3] of the same compound?
A: RSV was inactivated

Q: What about the “Presence of CPE” value [4] of the same compound?
A: -

Q: And the “inactivation of Influenza A virus (conclusion)” value [4]?
A: readily inactivated

Q: What about the cytotoxicity at 24 h [5] of the same compound?
A: > 90%

Q: What about the “MA-104 (toxicity)” value ([6]; 0.01 mg/ml) of the same compound?
A: 0

Q: What about the “MA-104 (toxicity)” value ([6]; 0.05 mg/ml) of the same compound?
A: 4+ (>90% of cells showed CTE.)

Q: What about the “MA-104 (toxicity)” value ([6]; 0.1 mg/ml) of the same compound?
A: 4+ (>90% of cells showed CTE.)

Q: What about the “MA-104 (Cytotoxic effect)” value ([7]; 0.01 mg/ml) of the same compound?
A: 0

Q: What about the “MA-104 (Cytotoxic effect)” value ([7]; 0.02 mg/ml) of the same compound?
A: 0

Q: And the “MA-104 (Cytotoxic effect)” value ([7]; 0.03 mg/ml)?
A: 0

Q: And the “MA-104 (Cytotoxic effect)” value ([7]; 0.04 mg/ml)?
A: 0

Q: What about the “plaque formation (conclusion)” value ([8]; pretreatment) of the same compound?
A: substantial drop in plaque formation

Q: What about the “plaque forming units/ml (pfu/ml)” value ([8]; pretreatment one hour, serum-less (control 548)) of the same compound?
A: 26 pfu/ml

Q: What about the inhibition at 20 µg/mL ([8]; Human alphaherpesvirus 2, MA104, 1 h, pretreatment one hour, serum-less, read-out: % decrease in pfu) of the same compound?
A: 95%

Q: What about the “effect on plaque formation (infectivity) (conclusion)” value ([9]; 0.02 mg/ml, pretreatment) of the same compound?
A: no effect on plaque formation (infectivity)

Q: And the pfu/ml ([9]; .02 mg/ml, pretreatment 15 minutes (control 1,000,000))?
A: 1,800,000 pfu/ml

Q: And the plaque forming units ([10]; 0.4% in phosphate buffered saline (control 41,250; control smear 13,500))?
A: 0 plaque forming units

Q: What about the “recovery of viruses (conclusion)” value ([10]; smears scrubbed off with 0.4% solution) of the same compound?
A: no viruses were recovered

Q: And the “Presence of CPE” value ([11]; experiment 1, virus dilution 10^-1 (control +))?
A: -

Q: And the “Presence of CPE” value ([11]; experiment 1, virus dilution 10^-2 (control +))?
A: -

Q: What about the “Presence of CPE” value ([11]; experiment 1, virus dilution 10^-3 (control -)) of the same compound?
A: -

Q: And the “Presence of CPE” value ([11]; experiment 1, virus dilution 10^-4 (control -))?
A: -

Q: And the “Presence of CPE” value ([11]; experiment 2, virus dilution 10^-2 (control +))?
A: -

Q: What about the “Presence of CPE” value ([11]; experiment 2, virus dilution 10^-3 (control -)) of the same compound?
A: -

Q: What about the “Presence of CPE” value ([11]; experiment 2, virus dilution 10^-4 (control -)) of the same compound?
A: -
